Earlier results as cited in publication PMC1403760 (BMC Pharmacology, 2006).
pEC50: −log10 of the molar value.

System: HEK cells
Parameters: method as in PMID 12238779
Conditions: in these (HEK) cells; read-out: EC50 of forskolin

For C=C[C@@]1(C)CC(=O)[C@]2(O)[C@@]3(C)[C@@H](O)CCC(C)(C)[C@@H]3[C@H](O)[C@H](OC(C)=O)[C@@]2(C)O1 [forskolin], the pEC50 is given as 5.00.
